According to PMC12483202, “Pharmacokinetic profile of oral firocoxib in the koala (Phascolarctos cinereus)” (PLOS One, 2025):
In brackets after ≈: the same amount, converted by molar mass. Where two headings read alike, the source gives them in different places.

Columns and labels:
[1] = system: COX-2; settings: cited from earlier work
[2] = system: equine plasma proteins; set-up: method as in PMID 17472652; settings: radiolabelled firocoxib; cited from earlier work
[3] = cited from earlier work
[4] = system: COX-1:COX-2; settings: cited from earlier work
[5] = system: cats; set-up: method as in PMID 16111170; settings: cited from earlier work
[6] = system: osteoarthritis in horses; set-up: method as in PMID 36684818; settings: cited from earlier work
[7] = set-up: method as in ref [6] of S9 Table; settings: Pigs (7); PO 4.0 mg/kg; ref [6] of S9 Table; cited from earlier work
[8] = system: ovariohysterectomised cats; set-up: method as in PMID 27515266; settings: 3 mg/kg/day, cited from earlier work
[9] = Repeated oral dosing (5 mg/kg every 12 h, six doses) plasma trough concentrations in koalas; format: in vivo; settings: koala (Phascolarctos cinereus)
Method: At least 2 months after the initial single oral dose administration study, firocoxib was administered twice daily at a dose of 5 mg/kg orally (as described in the single dose administration) for three consecutive days with the last dose administered 60 h after first administration, with a total of six doses administered. Blood (2 mL) was collected once daily into lithium heparin tubes at […] after first firocoxib dosage (prior to the morning dose). The cap, extension tube and catheter were flushed with saline before and after each collection. The first 0.5 mL of blood was discarded to avoid dilution of samples with saline.
With the repeated oral dosing, the accumulation factor equation [18] was used to ascertain if there was any firocoxib accumulation between trough concentrations at 48 h versus 72 h:
Accumulationfactor=(1−e^−nkT)/(1−e^−kT)
Where n = the number of doses k = ke = elimination constant
τ = number of hours between dosing

[10] = cited from earlier work; remark: listed apart in the source
[11] = system: koalas; test: Clinical observations, haematology and biochemistry after repeat dosing; format: in vivo, koala (Phascolarctos cinereus); settings: for Phos: reference interval 0.87-2.47
Method: Samples were centrifuged at 1500 x g for 10 minutes, within 1 h of collection; the plasma was immediately stored at –80 °C and protected from light until drug quantification. […] Clinical observations for the presence of adverse effects in the animals treated included measurement of vital signs, appetite, body weight, faecal consistency and overall behaviour and mobility.

[12] = system: cyclooxygenase-2; settings: based on in vitro studies in other species; cited from earlier work
[13] = system: urate crystal-induced synovitis in dogs; set-up: method as in ref 38 = [38]; 38 Dauteloup C , Pichou C , Beugnet F . Assessment of the efficacy of firocoxib and robenacoxib in an induced synovitis model of acute arthritis in dogs . International Journal of Applied Research in; settings: cited from earlier work
[14] = Firocoxib binding to plasma proteins, ultrafiltration; format: in vitro ADME; settings: pooled plasma, pH 7.4, firocoxib 500 ng/mL, corrected for non-specific binding, thawed frozen plasma, read-out: corrected percentage bound to plasma proteins (converted)
Method: The percentage of firocoxib bound to koala plasma proteins was determined using the ultrafiltration method using a modified protocol. As firocoxib plasma protein binding (PPB) has been reported in horses, archived horse plasma (obtained under The University of Sydney approved animal ethics protocol: 2015/736) was tested simultaneously alongside koala plasma to compare the percentage of firocoxib bound to equine plasma proteins. The total plasma protein concentration in the koala samples was determined using Vetscan® VS2 chemistry analyser (Comprehensive Diagnostic Profile), (Zoetis Australia Pty Ltd., Rhodes, NSW). Firocoxib dissolved in dimethyl sulfoxide (to reduce non-specific binding) at a concentration of 500 ng/mL, was added to 1 mL of thawed pooled blank koala or horse plasma, the pH was adjusted to 7.4, and then incubated in a water bath at 37 °C for 30 min. […] Both fractions were analysed by HPLC as described above. All samples were analysed as duplicates. The percentage of substrate binding to plasma proteins was calculated using the equation: […]
The same concentrations of firocoxib were added to phosphate buffered saline and underwent ultrafiltration to determine non-specific binding to the filtration membrane. Thereafter the corrected percentage of substrate binding to plasma proteins was calculated as: […]

[15] = female, in vivo, Plasma firocoxib concentration (trough)
[16] = male, in vivo, Plasma firocoxib concentration (trough)
[17] = Dogs (40), PO 5 mg/kg, ref [1] of S9 Table

- concentration at 24 h ([9]; both sexes, plasma, arithmetic mean, six koalas, 24 h, 5 mg/kg oral every 12 h, read-out: Firocoxib plasma trough concentration): 54.7 ng/mL
- concentration at 48 h ([9]; both sexes, plasma, arithmetic mean, six koalas, 48 h, 5 mg/kg oral every 12 h, read-out: Firocoxib plasma trough concentration): 47.4 ng/mL
- concentration at 72 h ([9]; both sexes, plasma, arithmetic mean, six koalas, 72 h (12 h after the last dose), 5 mg/kg oral every 12 h, read-out: Firocoxib plasma trough concentration): 85.5 ng/mL
- concentration at 24 h ([9]; both sexes, plasma, harmonic mean, six koalas, 24 h, 5 mg/kg oral every 12 h, read-out: Firocoxib plasma trough concentration): 43.3 ng/mL
- concentration at 48 h ([9]; both sexes, plasma, harmonic mean, six koalas, 48 h, 5 mg/kg oral every 12 h, read-out: Firocoxib plasma trough concentration): 33.2 ng/mL
- concentration at 72 h ([9]; both sexes, plasma, harmonic mean, six koalas, 72 h (12 h after the last dose), 5 mg/kg oral every 12 h, read-out: Firocoxib plasma trough concentration): 68.8 ng/mL
- concentration at 24 h ([9]; both sexes, plasma, median, six koalas, 24 h, 5 mg/kg oral every 12 h, read-out: Firocoxib plasma trough concentration): 58.3 ng/mL
- concentration at 48 h ([9]; both sexes, plasma, median, six koalas, 48 h, 5 mg/kg oral every 12 h, read-out: Firocoxib plasma trough concentration): 52.9 ng/mL
- concentration at 72 h ([9]; both sexes, plasma, median, six koalas, 72 h (12 h after the last dose), 5 mg/kg oral every 12 h, read-out: Firocoxib plasma trough concentration): 82.1 ng/mL
- concentration at 24 h [9, 15]: 69.1 ng/mL
- concentration at 48 h [9, 15]: 36.8 ng/mL
- concentration at 72 h [9, 15]: 137 ng/mL
- concentration at 24 h ([9]; female, plasma, harmonic mean, females, 24 h, 5 mg/kg oral every 12 h, read-out: Firocoxib trough plasma concentration): 75.5 ng/mL
- concentration at 48 h ([9]; female, plasma, harmonic mean, females, 48 h, 5 mg/kg oral every 12 h, read-out: Firocoxib trough plasma concentration): 51.6 ng/mL
- concentration at 72 h ([9]; female, plasma, harmonic mean, females, 72 h, 5 mg/kg oral every 12 h, read-out: Firocoxib trough plasma concentration): 118 ng/mL
- concentration at 24 h ([9]; female, plasma, mean, females, 24 h, 5 mg/kg oral every 12 h, read-out: Firocoxib trough plasma concentration): 76.5 ng/mL
- concentration at 48 h ([9]; female, plasma, mean, females, 48 h, 5 mg/kg oral every 12 h, read-out: Firocoxib trough plasma concentration): 55.5 ng/mL
- concentration at 72 h ([9]; female, plasma, mean, females, 72 h, 5 mg/kg oral every 12 h, read-out: Firocoxib trough plasma concentration): 120 ng/mL
- concentration at 24 h ([9]; female, plasma, median (range), females, 24 h, 5 mg/kg oral every 12 h, read-out: Firocoxib trough plasma concentration): 71.3 ng/mL
- concentration at 48 h ([9]; female, plasma, median (range), females, 48 h, 5 mg/kg oral every 12 h, read-out: Firocoxib trough plasma concentration): 60.2 ng/mL
- concentration at 72 h ([9]; female, plasma, median (range), females, 72 h, 5 mg/kg oral every 12 h, read-out: Firocoxib trough plasma concentration): 120 ng/mL
- concentration at 24 h [9, 16]: 25.3 ng/mL
- concentration at 72 h [9, 16]: 61.8 ng/mL
- concentration at 24 h ([9]; male, plasma, arithmetic mean, males, 24 h, 5 mg/kg oral every 12 h, read-out: Firocoxib trough plasma concentration): 33 ng/mL
- concentration at 48 h ([9]; male, plasma, arithmetic mean, males, 48 h, 5 mg/kg oral every 12 h, read-out: Firocoxib trough plasma concentration): 39.2 ng/mL
- concentration at 72 h ([9]; male, plasma, arithmetic mean, males, 72 h, 5 mg/kg oral every 12 h, read-out: Firocoxib trough plasma concentration): 51.3 ng/mL
- concentration at 24 h ([9]; male, plasma, harmonic mean, males, 24 h, 5 mg/kg oral every 12 h, read-out: Firocoxib trough plasma concentration): 30.3 ng/mL
- concentration at 48 h ([9]; male, plasma, harmonic mean, males, 48 h, 5 mg/kg oral every 12 h, read-out: Firocoxib trough plasma concentration): 24.6 ng/mL
- concentration at 72 h ([9]; male, plasma, harmonic mean, males, 72 h, 5 mg/kg oral every 12 h, read-out: Firocoxib trough plasma concentration): 48.5 ng/mL
- concentration at 24 h ([9]; male, plasma, median (range), males, 24 h, 5 mg/kg oral every 12 h, read-out: Firocoxib trough plasma concentration): 26.1 ng/mL
- concentration at 48 h ([9]; male, plasma, median (range), males, 48 h, 5 mg/kg oral every 12 h, read-out: Firocoxib trough plasma concentration): 48.2 ng/mL
- concentration at 72 h ([9]; male, plasma, median (range), males, 72 h, 5 mg/kg oral every 12 h, read-out: Firocoxib trough plasma concentration): 56.2 ng/mL
- Phos ([11]; koala K2, 72 h, after repeated dosing 5 mg/kg every 12 h): 1.48 mmol/L
- Phos ([11]; koala K6, 72 h, after repeated dosing 5 mg/kg every 12 h): 1.37 mmol/L
- Na ([11]; koala K6, 72 h, after repeated dosing 5 mg/kg every 12 h, reference interval 132-143): 139 mmol/L
- fraction unbound at 30 min, 500 ng/mL ([14]; horse plasma): 0.147
- fraction unbound at 30 min, 500 ng/mL ([14]; koala plasma): 0.153
Compound: CC1(C)OC(=O)C(OCC2CC2)=C1c1ccc(S(C)(=O)=O)cc1 [firocoxib]
- IC80 (COX-2) ([1]; horse whole blood, in vitro): 0.067 µg/mL (≈ 0.199 µM)
- plasma concentration required to inhibit 80% of in vitro COX-2 reactions ([1]; horse, corrected from whole blood IC80): exceeding 103 ng/mL
- COX-1:COX-2 inhibition ratio ([1]; horses, whole blood): 643
- bound in horse plasma [2]: 97%
- ionizability ([3]; at physiological pH): low ionizability
- -log10 dissociation constant (pka) [3]: 19.69
- solubility in dimethyl sulfoxide [3]: highly soluble
- solubility in water [3]: insoluble
- COX-1:COX-2 inhibition ratio ([4]; dogs, whole blood): 384–427
- COX-2 selectivity relative to carprofen ([4]; more potent than carprofen in COX-2 selectivity): 30 fold
- antipyretic activity [5]: antipyretic activity
- efficacy for controlling pain and inflammation associated with osteoarthritis [6]: good efficacy
- Cmax [7]: 60 ng/mL
- Tmax [7]: 7.41 h
- t1/2 [7]: 24.075 h
- postoperative analgesia ([8]; 1 h prior to induction of anaesthesia and at 24 and 48 h post-surgery): some analgesia
- azotaemia ([8]; 72 h after surgery): two out of eight cats developed a reversible azotaemia
- t1/2 ([10]; Dogs (6), PO 5 mg/kg, ref [2] of S9 Table): 6.5 h
- Cmax [10, 17]: 520 ng/mL
- Tmax [10, 17]: 1.25 h
- t1/2 [10, 17]: 5.9 h
- Tmax ([10]; dogs): 1.25 h
- plasma elimination half-life (mean) ([10]; dogs): 5.90 h
- mean Cmax ([10]; dogs, oral 5 mg/kg): 520 ng/mL
- appetite, behaviour and mobility ([11]; in vivo): no change from normal appetite, behaviour and mobility
- body weight ([11]; in vivo): maintained stable body weight
- target plasma concentration to inhibit 80% of cyclooxygenase-2 activity (IC80) [12]: approximately 100 ng/mL
- peak vertical force and weight-bearing capacity [13]: efficacy in improving the peak vertical force and weight-bearing capacity
